{
  "source": "paper doi:10.1101/2025.03.14.643404",
  "about": "“A Bivalent Molecular Glue Linking Lysine Acetyltransferases to Oncogene-induced Cell Death” (bioRxiv, 2025)",
  "target": "T1, FLAG-tagged BCL6 (Homo sapiens, UniProt P41182+Q09472+Q92793)",
  "T1 construct": "endogenous in cells; host or cells: SUDHL5, CRISPR genomic knock-in at the BCL6 stop codon",
  "T1 sequence (Q92793 2-2442 limits assumed, other chains not shown)": "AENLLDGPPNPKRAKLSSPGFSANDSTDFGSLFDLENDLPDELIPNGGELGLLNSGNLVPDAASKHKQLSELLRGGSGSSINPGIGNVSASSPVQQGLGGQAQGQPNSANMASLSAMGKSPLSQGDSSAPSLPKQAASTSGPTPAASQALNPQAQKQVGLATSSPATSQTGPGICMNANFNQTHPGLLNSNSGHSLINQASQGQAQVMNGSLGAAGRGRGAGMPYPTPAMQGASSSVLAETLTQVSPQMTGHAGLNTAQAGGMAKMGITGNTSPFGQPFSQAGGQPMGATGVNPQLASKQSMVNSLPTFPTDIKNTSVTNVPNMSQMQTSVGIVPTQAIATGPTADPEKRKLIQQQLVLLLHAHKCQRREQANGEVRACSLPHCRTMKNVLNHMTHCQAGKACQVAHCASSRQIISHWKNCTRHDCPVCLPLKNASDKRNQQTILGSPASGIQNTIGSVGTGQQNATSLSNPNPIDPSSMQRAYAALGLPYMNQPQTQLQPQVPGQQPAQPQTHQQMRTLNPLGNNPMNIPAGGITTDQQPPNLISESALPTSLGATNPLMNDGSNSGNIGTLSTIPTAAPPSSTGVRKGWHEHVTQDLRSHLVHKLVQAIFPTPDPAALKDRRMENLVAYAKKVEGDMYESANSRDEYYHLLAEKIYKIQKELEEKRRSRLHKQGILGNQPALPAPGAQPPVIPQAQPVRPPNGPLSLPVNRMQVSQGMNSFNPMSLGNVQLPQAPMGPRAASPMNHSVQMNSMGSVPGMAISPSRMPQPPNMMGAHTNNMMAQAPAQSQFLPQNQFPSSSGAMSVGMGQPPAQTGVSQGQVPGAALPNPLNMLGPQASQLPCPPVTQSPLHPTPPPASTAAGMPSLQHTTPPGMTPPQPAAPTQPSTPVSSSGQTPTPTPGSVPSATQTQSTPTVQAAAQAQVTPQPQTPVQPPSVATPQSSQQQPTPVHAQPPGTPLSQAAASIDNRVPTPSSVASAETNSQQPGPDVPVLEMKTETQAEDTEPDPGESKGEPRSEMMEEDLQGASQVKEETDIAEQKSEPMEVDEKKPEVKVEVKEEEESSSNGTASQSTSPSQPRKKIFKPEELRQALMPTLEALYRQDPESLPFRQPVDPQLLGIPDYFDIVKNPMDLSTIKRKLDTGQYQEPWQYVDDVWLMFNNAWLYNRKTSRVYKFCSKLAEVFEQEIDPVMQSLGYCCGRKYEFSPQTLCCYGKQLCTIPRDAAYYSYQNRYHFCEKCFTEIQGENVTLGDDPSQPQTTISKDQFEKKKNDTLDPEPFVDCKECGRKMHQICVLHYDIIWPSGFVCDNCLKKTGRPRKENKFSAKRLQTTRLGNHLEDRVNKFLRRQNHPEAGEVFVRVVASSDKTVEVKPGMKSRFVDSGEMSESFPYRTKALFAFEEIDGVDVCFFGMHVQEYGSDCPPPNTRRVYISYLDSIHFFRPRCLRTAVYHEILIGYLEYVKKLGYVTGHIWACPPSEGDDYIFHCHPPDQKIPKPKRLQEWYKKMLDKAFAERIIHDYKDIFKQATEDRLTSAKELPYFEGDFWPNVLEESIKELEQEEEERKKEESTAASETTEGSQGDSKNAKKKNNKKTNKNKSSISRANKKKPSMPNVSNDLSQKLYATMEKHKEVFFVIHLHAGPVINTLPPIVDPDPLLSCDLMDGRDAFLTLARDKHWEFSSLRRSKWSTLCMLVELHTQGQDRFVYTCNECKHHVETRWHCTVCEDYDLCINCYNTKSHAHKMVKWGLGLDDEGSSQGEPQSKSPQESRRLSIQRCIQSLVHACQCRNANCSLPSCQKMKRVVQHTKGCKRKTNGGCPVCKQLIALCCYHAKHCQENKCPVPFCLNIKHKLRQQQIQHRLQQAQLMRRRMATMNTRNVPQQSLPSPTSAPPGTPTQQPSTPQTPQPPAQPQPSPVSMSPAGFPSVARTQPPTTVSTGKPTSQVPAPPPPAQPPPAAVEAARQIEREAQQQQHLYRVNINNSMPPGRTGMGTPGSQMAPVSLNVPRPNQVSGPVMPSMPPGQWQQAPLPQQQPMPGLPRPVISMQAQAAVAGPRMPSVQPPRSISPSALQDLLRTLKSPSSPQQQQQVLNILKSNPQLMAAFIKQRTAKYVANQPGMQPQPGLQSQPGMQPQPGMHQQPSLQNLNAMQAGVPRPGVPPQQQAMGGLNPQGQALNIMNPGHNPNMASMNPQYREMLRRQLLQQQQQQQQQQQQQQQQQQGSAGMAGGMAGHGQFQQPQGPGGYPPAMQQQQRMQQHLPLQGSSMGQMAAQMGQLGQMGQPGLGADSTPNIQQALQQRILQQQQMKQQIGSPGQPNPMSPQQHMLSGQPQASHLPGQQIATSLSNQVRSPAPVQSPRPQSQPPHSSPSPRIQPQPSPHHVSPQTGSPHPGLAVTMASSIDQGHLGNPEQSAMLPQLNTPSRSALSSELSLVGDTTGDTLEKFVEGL",
  "T1 sequence (Q09472 2-2414 limits assumed, other chains not shown)": "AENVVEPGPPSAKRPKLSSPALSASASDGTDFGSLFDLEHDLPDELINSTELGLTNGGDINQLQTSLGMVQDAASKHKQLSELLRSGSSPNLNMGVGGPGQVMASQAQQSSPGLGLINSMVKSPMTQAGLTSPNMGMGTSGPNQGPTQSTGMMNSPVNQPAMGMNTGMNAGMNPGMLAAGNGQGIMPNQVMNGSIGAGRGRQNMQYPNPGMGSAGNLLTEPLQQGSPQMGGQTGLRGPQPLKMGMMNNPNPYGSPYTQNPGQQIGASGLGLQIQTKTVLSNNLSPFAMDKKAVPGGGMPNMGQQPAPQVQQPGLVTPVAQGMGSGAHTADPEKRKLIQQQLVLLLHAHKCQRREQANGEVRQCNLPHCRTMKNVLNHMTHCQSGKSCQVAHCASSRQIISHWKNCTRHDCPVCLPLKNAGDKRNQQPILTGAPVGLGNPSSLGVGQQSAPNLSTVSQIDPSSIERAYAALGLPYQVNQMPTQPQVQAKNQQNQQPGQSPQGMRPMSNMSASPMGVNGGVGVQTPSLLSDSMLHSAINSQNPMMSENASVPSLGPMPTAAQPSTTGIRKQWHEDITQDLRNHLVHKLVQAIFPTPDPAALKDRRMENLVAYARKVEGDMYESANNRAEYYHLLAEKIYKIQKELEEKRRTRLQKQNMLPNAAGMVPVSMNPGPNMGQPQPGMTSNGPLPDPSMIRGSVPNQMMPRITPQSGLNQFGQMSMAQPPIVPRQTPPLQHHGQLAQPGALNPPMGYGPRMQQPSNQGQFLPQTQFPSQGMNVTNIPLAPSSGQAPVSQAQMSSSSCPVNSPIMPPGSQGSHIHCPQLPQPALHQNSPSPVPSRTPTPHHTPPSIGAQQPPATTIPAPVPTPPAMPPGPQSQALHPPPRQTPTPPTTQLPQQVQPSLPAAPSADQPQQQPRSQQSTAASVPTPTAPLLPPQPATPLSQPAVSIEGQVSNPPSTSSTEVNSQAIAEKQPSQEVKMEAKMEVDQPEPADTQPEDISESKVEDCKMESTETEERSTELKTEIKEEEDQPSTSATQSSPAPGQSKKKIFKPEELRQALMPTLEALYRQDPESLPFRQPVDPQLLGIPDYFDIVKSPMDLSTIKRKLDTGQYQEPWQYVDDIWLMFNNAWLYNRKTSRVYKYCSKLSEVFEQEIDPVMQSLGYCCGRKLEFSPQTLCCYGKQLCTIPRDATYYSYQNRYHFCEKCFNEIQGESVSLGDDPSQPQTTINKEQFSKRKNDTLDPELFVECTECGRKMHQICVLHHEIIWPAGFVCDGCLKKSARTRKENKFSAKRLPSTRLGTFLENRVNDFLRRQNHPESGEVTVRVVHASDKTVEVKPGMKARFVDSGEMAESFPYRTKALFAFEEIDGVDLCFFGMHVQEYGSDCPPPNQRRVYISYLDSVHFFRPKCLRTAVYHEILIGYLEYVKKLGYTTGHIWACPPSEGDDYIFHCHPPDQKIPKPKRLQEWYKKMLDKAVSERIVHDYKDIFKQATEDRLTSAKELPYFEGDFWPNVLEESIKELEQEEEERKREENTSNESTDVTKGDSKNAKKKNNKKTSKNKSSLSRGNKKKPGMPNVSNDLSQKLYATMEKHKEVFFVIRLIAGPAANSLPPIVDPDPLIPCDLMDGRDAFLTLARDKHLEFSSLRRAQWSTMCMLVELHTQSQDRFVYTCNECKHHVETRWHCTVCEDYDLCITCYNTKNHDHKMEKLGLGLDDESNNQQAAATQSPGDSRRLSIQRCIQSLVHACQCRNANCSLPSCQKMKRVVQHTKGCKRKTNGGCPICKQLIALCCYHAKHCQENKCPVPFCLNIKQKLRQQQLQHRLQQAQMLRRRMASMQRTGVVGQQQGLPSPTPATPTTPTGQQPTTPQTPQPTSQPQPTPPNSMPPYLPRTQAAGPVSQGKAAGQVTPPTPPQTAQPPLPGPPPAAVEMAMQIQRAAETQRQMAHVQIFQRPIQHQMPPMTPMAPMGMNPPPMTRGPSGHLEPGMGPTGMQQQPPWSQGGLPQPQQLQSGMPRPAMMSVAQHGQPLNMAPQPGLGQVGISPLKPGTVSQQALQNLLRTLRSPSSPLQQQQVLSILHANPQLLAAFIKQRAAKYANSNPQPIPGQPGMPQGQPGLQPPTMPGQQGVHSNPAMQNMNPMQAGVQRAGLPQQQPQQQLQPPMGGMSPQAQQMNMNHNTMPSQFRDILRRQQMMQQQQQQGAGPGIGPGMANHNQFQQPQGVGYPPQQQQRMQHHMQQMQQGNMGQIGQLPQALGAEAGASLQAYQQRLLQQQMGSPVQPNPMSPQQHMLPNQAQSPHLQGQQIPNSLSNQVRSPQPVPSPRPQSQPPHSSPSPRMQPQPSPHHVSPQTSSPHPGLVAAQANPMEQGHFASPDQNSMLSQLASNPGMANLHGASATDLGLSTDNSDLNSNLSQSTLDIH",
  "experiment": "FLAG IP-MS in FLAG-tagged BCL6 knock-in SUDHL5",
  "type": "cell-based",
  "conditions": "FLAG-BCL6 SUDHL5, 1 nM, 2 h",
  "experimental": "50 million FLAG-BCL6 knock-in SUDHL5 cells were treated compound or DMSO (0.1%) at indicated doses for 2 hours. Cells were lysed in NE10 buffer (20 mM HEPES (pH 7.5), 10 mM KCl, 1 mM MgCl2, 0.1% Triton X-100 (v/v), protease inhibitors (Roche), 15 mM ß-mercaptoethanol), dounced 15 times and pelleted 5 min at 500 g. Nuclei were washed in NE10 buffer and then digested with 250 units benzonase (Millipore) for 30 min rotating at 25°C. Nuclei were resuspended in NE150 buffer (NE10 supplemented with 150mM NaCl) and incubated for 20 min. Lysates were pelleted at 16,000 g for 20 min at 4°C and supernatants were immunoprecipitated by incubating with 2.5 μg FLAG M2 antibody (F1804, Millipore-Sigma) or 2.5 μg p300 (A300–358A, Bethyl Laboratories) antibody with Dynabeads Protein G (Thermo Fisher) overnight at 4°C. The IP fraction was recovered by magnetic separation followed by three washes with NE10 buffer containing 150mM–300mM NaCl but without Triton-X. For mass spectrometry analysis, the IP was then eluted from the beads with Ammonium Hydroxide, pH 11–12; 3% v/v. […]\nThe reconstituted desalted peptides were then analyzed using a nanoElute 2 UHPLC (Bruker Daltonics, Bremen, Germany) coupled to a timsTOF HT (Bruker Daltonics, Bremen, Germany) via a CaptiveSpray nano-electrospray source. […]",
  "data": [
    {"smiles": "CNC(=O)COc1cc2cc(Nc3nc(N4CCC(C(=O)N5CCN(CCC(=O)N6CCC(n7nc(N8CCCc9cc(-c%10cnn(C)c%10)c(C(F)F)cc98)c8c7CCN(C(=O)NC)C8)CC6)CC5)CC4)ncc3Cl)cc(OC)c2n(C)c1=O", "note": "[TCIP3]", "values": [
      {"measurement": "enrichment of CBP in FLAG-BCL6 IP, log2(fold change)", "setting": "vs DMSO", "result": 3.7},
      {"measurement": "enrichment of p300 in FLAG-BCL6 IP, log2(fold change)", "setting": "no peptides in DMSO, imputed", "result": 3.7}
    ]}
  ]
}
